From patent US7691842B2, “Tricyclic 6-alkylidene-penems as β-lactamase inhibitors” (Wyeth LLC, priority 2002, dated 2010)
pIC50: −log10 of the molar value. Like-named read-outs stand apart in the source and are kept apart here.

Assays:
[1] = tested on: Clinical isolates that have been adapted to cause infection in mice; assay: In vivo antibacterial protection (7 day survival of infected mice, ED50); set-up: species or system mice strain CD-1; details: Ratio of Piperacillin Inhibitor not given
From the text: In Vivo Antibacterial Protection
Female mice strain CD-1, approximately 18-22 grams, were received from Charles River Laboratories and quarantined 7 days prior to use. In addition, mice may be rendered neutropenic using cytoxan for particular studies.
Clinical isolates that have been adapted to cause infection in mice, are used in the experiment, including infections with strains of E. coli, K. pneumoniae, M. morganii, E. cloacae, S. marcescens, C. freundii, staphylococci, streptococci, P. aeruginosa and N. gonorrhoeae.
Mice are challenged by injecting 0.5 ml intraperitoneally or 0.05 ml intranasally of a predetermined bacterial inoculum suspended in broth, saline or hog gastric mucin (supplemented with dried bovine hemoglobin for N. gonorrhoeae). […] Antibacterial doses (dose concentration prepared by two fold serial dilutions of the antibiotic) are dissolved or suspended in 0.2% aqueous agar or methocel, phosphate buffered saline or an adjuvant are administered orally, subcutaneously or intravenously in the following manner: • a) Orally or subcutaneously: Dose volume of 0.5 ml administered ½ hr after infection. A second dose may be administered 3 hr. after infection for treatment of infections with more virulent organisms. • b) Intravenously: Dose volume of 0.2 ml, administered ½ hr. after infection. For the treatment of infections with more virulent organisms, more doses, up to 48 hr may be administered. (Intravenous dosing will not exceed 3 doses/24 hr period.) • c) Oral pretreatment: Under special circumstances, the pH of the stomach needs to be adjusted in order to increase the gastric stability of the antibiotic. For this purpose, 0.5 ml of phosphate buffered saline (pH7.8, 0.06M) (or specific approved adjuvant) is administered orally ½ hr after infection, followed 5 minutes later by 0.5 ml of antibiotic (also orally) contained in phosphate buffered saline (pH7.8, 0.06M). Animal Species
A detailed explanation as to the number of animals needed for the determination of in vivo efficacy follows: • A) Novel antibiotics are tested at 5 different dose levels with 5 mice per dose level at each of three routes of administration (oral, subcutaneous and intravenous). […] This would require 25 mice/route with 3 routes/antibiotic or 75 mice per novel compound tested. One to two novel antibiotics will be tested per experiment (75-150 mice) • B) The effectiveness of the new compound must be compared to that of a standard, or antibiotic of known effectiveness. Known or previously tested antibiotics are tested at 5 dose levels with 5 mice per dose level by a single route of administration, for a total of 25 mice/antibiotic. Usually 3-6 antibiotics will be tested per experiment. (75-150 mice). • C) Untreated controls—In each of the above tests, untreated animals are infected with 3 different concentrations of bacterial inoculum with 10 mice per concentration (30 mice total in each and every test). These untreated controls are used to determine and maintain the infection level between 10-100 LD50s as required for test to test comparison and validity. Determination of Protective Effects of Antibacterial Agents:
The protective effects of the antibacterial agent(s) are measured by the survival of the infected untreated as compared to the treated animals. For this determination, animals are observed for 7 days after treatment. A census of survivors is taken twice daily and at that time dead as well as moribund animals are removed. The 7 day survival ratio from three separate tests are pooled for estimation of median effective dose (ED50) by computerized program for probit analysis (Cleeland, R. and E. Squires. 1991. Evaluation of New Antimicrobials in Vitro and in Experimental Animal Infections. In Antibiotics in Laboratory Medicine”, 3rd. ed., edited by Victor Lorian. Willams and Wilkins Baltimore, Md. pp. 752-783). […]

[2] = molecular target: class A β-lactamase Imi-1 (Enterobacter cloacae, UniProt Q46991); assay: β-Lactamase inhibition, IC50 determination (nitrocefin, spectrophotometric); format: biochemical
Sequence of class A β-lactamase Imi-1 (Q46991 entry or part of it): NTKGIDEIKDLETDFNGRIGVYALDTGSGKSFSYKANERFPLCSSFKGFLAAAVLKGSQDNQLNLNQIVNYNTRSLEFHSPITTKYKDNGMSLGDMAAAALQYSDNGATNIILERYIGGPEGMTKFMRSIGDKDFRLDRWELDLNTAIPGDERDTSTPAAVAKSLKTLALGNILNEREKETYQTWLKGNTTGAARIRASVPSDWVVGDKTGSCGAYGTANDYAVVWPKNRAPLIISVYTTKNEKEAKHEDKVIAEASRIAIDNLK

class B enzyme CcrA = class B enzyme CcrA (Bacteroides fragilis, UniProt P25910); assay: as above; format: biochemical; details: enzyme 1.2 nM; 10 min preincubation at 25° C.; nitrocefin 50 μg/ml; 50 mM PO4, pH 7.0; read-out: IC50 (nM) Class B Ccr
Sequence of class B enzyme CcrA (P25910 19-249): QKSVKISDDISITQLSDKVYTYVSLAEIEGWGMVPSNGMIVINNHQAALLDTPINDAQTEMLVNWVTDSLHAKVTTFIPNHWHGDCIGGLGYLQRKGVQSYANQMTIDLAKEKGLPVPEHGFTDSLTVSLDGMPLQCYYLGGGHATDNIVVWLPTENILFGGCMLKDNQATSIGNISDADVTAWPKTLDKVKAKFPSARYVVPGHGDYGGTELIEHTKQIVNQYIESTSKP
Summary of the method: (§1)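 Purified enzymes TEM-1 (4.3 nM), Imi-1 (7.1 nM), CcrA (1.2 nM) and AmpC (2.1 nM) were preincubated with inhibitor 10 min at 25 °C in 50 mM PO4, pH 7.0. Nitrocefin (50 μg/ml) hydrolysis rates at 495 nm over 5 min gave % inhibition versus control; IC50 determined graphically.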

class C enzyme AmpC = class C enzyme AmpC (Enterobacter cloacae, UniProt P05364); assay: biochemical; set-up: species or system Enterobacter cloaca
Sequence of class C enzyme AmpC (P05364 21-381): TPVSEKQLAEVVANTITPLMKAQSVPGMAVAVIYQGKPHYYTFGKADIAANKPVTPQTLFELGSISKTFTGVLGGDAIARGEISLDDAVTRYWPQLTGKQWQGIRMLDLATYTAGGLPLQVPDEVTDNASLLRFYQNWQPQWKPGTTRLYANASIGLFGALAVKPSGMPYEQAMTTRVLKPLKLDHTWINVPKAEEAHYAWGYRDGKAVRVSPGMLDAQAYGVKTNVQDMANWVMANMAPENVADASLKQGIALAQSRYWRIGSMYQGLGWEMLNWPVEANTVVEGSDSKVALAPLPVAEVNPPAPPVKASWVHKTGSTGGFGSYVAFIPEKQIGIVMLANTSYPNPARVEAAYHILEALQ
Summary of the method: as §1

E. Coli GC2894 (Ampc) = assay: Antimicrobial susceptibility testing, microbroth dilution MIC of piperacillin + inhibitor; format: cell-based; details: piperacillin combined with constant 4 μg/ml inhibitor; Inc: 35° C. for 18 hours
Summary of the method: (§2)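 Piperacillin two-fold dilution series + 4 μg/ml inhibitor (final), MHBII, 10^5 CFU/ml, 35° C, 18-22 h, ambient air; NCCLS microdilution.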

E. Coli GC2847 (TEM-1) = assay: as above; format: cell-based; details: piperacillin combined with constant 4 μg/ml inhibitor; Inc: 35° C. for 18 hours
Summary of the method: as §2

E. Coli GC2920 (IRT-2) = assay: as above; format: cell-based; details: piperacillin combined with constant 4 μg/ml inhibitor; Inc: 35° C. for 18 hours
Summary of the method: as §2

E. Coli GC2203 = assay: as above; format: cell-based; details: piperacillin combined with constant 4 μg/ml inhibitor; Inc: 35° C. for 18 hours
Summary of the method: as §2

E. Cloacae GC1477 (Ampc) = assay: as above; format: cell-based; details: piperacillin combined with constant 4 μg/ml inhibitor; Inc: 35° C. for 18 hours
Summary of the method: as §2

[3] = tested on: P. aeruginos GC1764 (Ampc); assay: as above; format: cell-based; details: piperacillin combined with constant 4 μg/ml inhibitor; Inc: 35° C. for 18 hours
Summary of the method: as §2

E. Coli GC2844 = assay: as above; format: cell-based; details: piperacillin combined with constant 4 μg/ml inhibitor; Inc: 35° C. for 18 hours
Summary of the method: as §2

[4] = tested on: S. Marcescens GC1781 Sme-1 + Ampc; assay: as above; format: cell-based; details: piperacillin combined with constant 4 μg/ml inhibitor; Inc: 35° C. for 18 hours
Summary of the method: as §2

S. aureus GC2216 = assay: as above; format: cell-based; details: piperacillin combined with constant 4 μg/ml inhibitor; Inc: 35° C. for 18 hours
Summary of the method: as §2

[5] = molecular target: class A β-lactamase TEM-1 (Escherichia coli, UniProt P62593); assay: β-Lactamase inhibition, IC50 determination (nitrocefin, spectrophotometric); format: biochemical, E. Coli
Sequence of class A β-lactamase TEM-1 (P62593 24-286 limits assumed): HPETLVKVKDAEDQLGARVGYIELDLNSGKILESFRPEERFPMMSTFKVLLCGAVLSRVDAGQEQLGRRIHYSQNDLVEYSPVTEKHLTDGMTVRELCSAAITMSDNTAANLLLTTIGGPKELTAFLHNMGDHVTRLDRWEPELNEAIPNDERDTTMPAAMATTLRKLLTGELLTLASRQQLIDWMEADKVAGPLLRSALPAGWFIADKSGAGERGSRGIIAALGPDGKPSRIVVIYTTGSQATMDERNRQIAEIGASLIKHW
Summary of the method: as §1

[6] = tested on: class-A producing pathogens; details: background statement; cited from earlier work
[7] = tested on: class C producing organisms; details: background statement; cited from earlier work

Row | Compound | IC50 (class B enzyme CcrA) | melting point | pIC50 [2] | pIC50 (class C enzyme AmpC) | pIC50 [5] | also measured
1 | O=C(O)C1=CS[C@@H]2/C(=C\c3cn4c5c(sc4n3)CCCC5)C(=O)N12 [Example 19, (5R),(6Z)-7-oxo-6-(5,6,7,8-tetrahydroimidazo[2,1-b][1,3]benzothiazol-2-ylmethylene)-4-thia-1-azabicyclo[3.2.0]hept-2-ene-2-carboxylic acid] | 215 nM | – | – | – | – | ED50 [1]: 63 mg/kg; IC50 ([2]; enzyme 7.1 nM, 10 min preincubation at 25° C., nitrocefin 50 μg/ml, 50 mM PO4, pH 7.0, read-out: IC50 (nM) Class A Imi): 33 nM; IC50 (class C enzyme AmpC; enzyme 2.1 nM, 10 min preincubation at 25° C., nitrocefin 50 μg/ml, 50 mM PO4, pH 7.0, read-out: IC50 (nM) Class C AmpC): 0.62 nM; Minimal Inhibitory Concentration E. Coli GC2894 (Ampc) (E. Coli GC2894 (Ampc)): 4 µg/mL; Minimal Inhibitory Concentration E. Coli GC2847 (TEM-1) (E. Coli GC2847 (TEM-1)): 8 µg/mL; Minimal Inhibitory Concentration E. Coli GC2920 (IRT-2) (E. Coli GC2920 (IRT-2)): 2 µg/mL; Minimal Inhibitory Concentration E. Coli GC2203 (E. Coli GC2203): 2 µg/mL; Minimal Inhibitory Concentration E. Cloacae GC1477 (Ampc) (E. Cloacae GC1477 (Ampc)): 32 µg/mL; Minimal Inhibitory Concentration P. aeruginos GC1764 (Ampc) [3]: 1 µg/mL; Minimal Inhibitory Concentration E. Coli GC2844 (E. Coli GC2844): 2 µg/mL; Minimal Inhibitory Concentration S. Marcescens GC1781 Sme-1 + Ampc [4]: 8 µg/mL; Minimal Inhibitory Concentration S. aureus GC2216 (S. aureus GC2216): .06 µg/mL; IC50 ([5]; enzyme 4.3 nM, 10 min preincubation at 25° C., nitrocefin 50 μg/ml, 50 mM PO4, pH 7.0, read-out: IC50 (nM) Class A TEM-1): 1.9 nM
2 | Cc1nc2nc(/C=C3/C(=O)N4C(C(=O)[O-])=CS[C@H]34)nn2c2c1CCC2.[Na+] [Example 22, (5R,6Z)-6-[(5-methyl-7,8-dihydro-6H-cyclopenta[e][1,2,4]triazolo[1,5-a]pyrimidin-2-yl)methylene]-7-oxo-4-thia-1-azabicyclo[3.2.0]hept-2-ene-2-carboxylic acid, sodium salt] | – | 250 °C (dec.) | – | – | – | –
3 | O=C([O-])C1=CS[C@@H]2/C(=C\c3nc4ncc5c(n4n3)CCC3(C5)OCCO3)C(=O)N12.[Na+] [Example 24, (5R,6Z)-6-(8′,9′-dihydro-6′H-spiro[1,3-dioxolane-2,7′-[1,2,4]triazolo[1,5-a]quinazolin]-2′-ylmethylene)-7-oxo-4-thia-1-azabicyclo[3.2.0]hept-2-ene-2-carboxylic acid, sodium salt] | – | > 250 °C (dec.) | – | – | – | –
4 | Cc1nc2nc(/C=C3/C(=O)N4C(C(=O)[O-])=CS[C@H]34)nn2c2c1CCCC2.[Na+] [Example 25, (5R,6Z)-6-[(5-methyl-6,7,8,9-tetrahydro[1,2,4]triazolo[1,5-a]quinazolin-2-yl)methylene]-7-oxo-4-thia-1-azabicyclo[3.2.0]hept-2-ene-2-carboxylic acid, sodium salt] | – | 250 °C (dec.) | – | – | – | –
5 | O=C([O-])C1=CS[C@@H]2/C(=C\c3cn4c5c(c(OCCOCc6ccccc6)nc4n3)CCC5)C(=O)N12.[Na+] [Example 27, (5R,6Z)-6-(5-[2-(benzyloxy)ethoxy]-7,8-dihydro-6H-cyclopenta[e]imidazo[1,2-a]pyrimidin-2-ylmethylene)-7-oxo-4-thia-1-azabicyclo[3.2.0]hept-2-ene-2-carboxylic acid, sodium salt] | 180 nM | > 250 °C | 7.48 | 8.52 | 7.92 | –
6 | O=C([O-])C1=CS[C@@H]2/C(=C\c3ccc4nc5n(c4c3)CCS5)C(=O)N12.[Na+] [Example 28, (5R,6Z)-6-(2,3-dihydro[1,3]thiazolo[3,2-a]benzimidazol-6-ylmethylene)-7-oxo-4-thia-1-azabicyclo[3.2.0]hept-2-ene-2-carboxylic acid, sodium salt] | 110 nM | > 250 °C | 7.05 | 8.24 | 8.49 | –
7 | O=C([O-])C1=CS[C@@H]2/C(=C\c3ccc4nc5n(c4c3)CCCS5)C(=O)N12.[Na+] [Example 29, (5R,6Z)-6-(3,4-dihydro-2H-[1,3]thiazino[3,2-a]benzimidazol-7-ylmethylene)-7-oxo-4-thia-1-azabicyclo[3.2.0]hept-2-ene-2-carboxylic acid, sodium salt] | 240 nM | > 250 °C | 6.52 | 7.74 | 7.82 | –
8 | O=C([O-])C1=CS[C@@H]2/C(=C\c3ccc4nc5sccn5c4c3)C(=O)N12.[Na+] [Example 30, (5R,6Z)-7-oxo-6-([1,3]thiazolo[3,2-a]benzimidazol-6-ylmethylene)-4-thia-1-azabicyclo[3.2.0]hept-2-ene-2-carboxylic acid, sodium salt] | 97 nM | > 250 °C | 6.70 | 8.03 | 7.34 | –
9 | O=C(O)[C@H]1/C(=C/CO)O[C@@H]2CC(=O)N21 [clavulanic acid] | – | – | – | – | – | effectiveness against class-A producing pathogens [6]: effective; effectiveness against class C producing organisms [7]: ineffective
10 | CC1(C)[C@H](C(=O)O)N2C(=O)C[C@H]2S1(=O)=O [sulbactam] | – | – | – | – | – | effectiveness against class-A producing pathogens [6]: effective; effectiveness against class C producing organisms [7]: ineffective
11 | C[C@]1(Cn2ccnn2)[C@H](C(=O)O)N2C(=O)C[C@H]2S1(=O)=O [tazobactam] | – | – | – | – | – | effectiveness against class-A producing pathogens [6]: effective; effectiveness against class C producing organisms [7]: ineffective
